“Also recorded” adds a separate entry of the source.

A short description of experiment [1]: in vitro kinetics of precipitation of hydroxyapatite (Example 1, FIG. 1). Conditions: [phosphate]=1.5 mM, [Ca^2+]=60 mg/l, pH=7.5. The protocol:
In said FIG. 1 it is shown that the first curve corresponds to direct precipitation without phytate or Zn^2+. The second (Zn^2+) consists of the addition of 0.038 μM of Zn^2+. […] The third curve (Phytate) corresponds to the precipitation of hydroxyapatite in the presence of 0.38 μM of phytate. […] Finally, the last graph (Phytate+Zn^2+) corresponds to the precipitation in the presence of 0.38 μM of phytate and 0.038 μM of Zn^2+ (phytate-Zn molar ratio 10:1).
An in vitro system was designed to study the kinetics of precipitation of hydroxyapatite. A system using the following experimental conditions: [phosphate]=1.5 mM, [Ca^2+]=60 mg/l, pH=7.5, was used. The kinetics of precipitation of the hydroxyapatite was recorded with a Shimadzu (UV-120-02) spectrophotometer using 3 ml plastic vials and recording the absorbance every 5 minutes at 550 nm.

Experiment [2] in a line: in vitro kinetics of precipitation of hydroxyapatite (Example 2, FIG. 2). Conditions: [phosphate]=2.5 mM, [Ca^2+]=60 mg/l, pH=7.5. The procedure: In said FIG. 2 it is shown that the first series corresponds to the direct precipitation without phytate or Zn^2+. The second consists of the addition of 0.3 μM of Zn^2+. […] The third series corresponds to the precipitation of hydroxyapatite in the presence of 1.5 μM of phytate.
Finally, two series using 1.5 μM phytate and two different concentrations of zinc: Zn^2+: 0.3 μM (phytate-Zn molar ratio 5:1) and 0.15 μM (phytate-Zn molar ratio 10:1), respectively, are shown.
With the same system as in example 1, a system using the following experimental conditions: [phosphate]=2.5 mM, [Ca^2+]=60 mg/l, pH=7.5, was used. The kinetics of precipitation of the hydroxyapatite was recorded with a Shimadzu (UV-120-02) spectrophotometer using 3 ml plastic vials and recording the absorbance every 5 minutes at 550 nm.

For the compound `O=P(O)(O)O[C@H]1[C@H](OP(=O)(O)O)[C@@H](OP(=O)(O)O)[C@H](OP(=O)(O)O)[C@@H](OP(=O)(O)O)[C@H]1OP(=O)(O)O` [Phytate, Myo-inositol hexaphosphate], the “inhibiting effect on precipitation of hydroxyapatite” value in experiment [1] (0.38 μM of phytate) and in experiment [2] (1.5 μM of phytate) was “significant inhibiting effect” in each case.

With `[Zn+2]` [Zn^2+], the figures for the “inhibiting effect on precipitation of hydroxyapatite” value in experiment [1] (0.038 μM of Zn^2+) and in experiment [2] (0.3 μM of Zn^2+) were “no inhibiting effect” and “no inhibiting effect; also recorded: does not show any inhibiting effect”, respectively.

The values are drawn from US9144578B2, “Fixed-dose association of phytate and zinc” (Universitat De Les Illes Balears, priority 2006, dated 2015).
